In patent US10925282B2, “Enhanced kill of microorganisms” (CONOCOPHILLIPS COMPANY, priority 2017, dated 2021):
Where two headings read alike, the source gives them in different places.

Assays:
[1] = tested on: Barnett sulfate reducing bacteria (SRB) culture
[2] = tested on: freshwater denitrifying culture; conditions: 20 mM; 30-minute exposure; cited from earlier work
[3] = 1 mM nitrite, approximately 24 hours

Compound | cATP concentration [1, 3] | reduction in cATP concentrations [1, 3] [%] | time required to reach a cATP concentration below 1000 picograms per mL ([1]; 1 mM nitrite, initial microbial equivalency 1.0×10^7 cells/mL, 30° C.) | reduction in cATP concentrations ([1]; 2 mM nitrite, same time period (approximately 24 hours)) [%] | reduction of ATP levels [2] [%]
O=NO [nitrite] | below 1000 picograms per mL | > 90 | Approximately 24 hours | > 99 | 
[O]=[W](=[O])([O-])[O-] [tungstate] |  |  |  |  | 41
